Measurements as given in PubChem BioAssay (NCI).
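GI50 marks 50% less growth. TGI is the concentration that stops growth completely.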

Assays:
Test in all cases: NCI-60 cell line screen, 384-well format
[1] = test system: SF-268 CNS
[2] = test system: ACHN renal
[3] = test system: TK-10 renal
[4] = test system: SK-MEL-5 melanoma
[5] = test system: SR leukemia
[6] = test system: COLO 205 colon
[7] = test system: NCI-H322M lung
[8] = test system: DU-145 prostate
[9] = test system: MDA-MB-231 breast
[10] = test system: SW-620 colon
[11] = test system: KM12 colon
[12] = test system: NCI-H226 lung
[13] = test system: MDA-MB-435 melanoma
[14] = test system: CCRF-CEM leukemia
[15] = test system: MDA-MB-468 breast
[16] = test system: SN12C renal
[17] = test system: NCI-H522 lung
[18] = test system: OVCAR-8 ovarian
[19] = test system: UACC-62 melanoma
[20] = test system: SK-MEL-2 melanoma
[21] = test system: SF-295 CNS
[22] = test system: HT29 colon
[23] = test system: CAKI-1 renal
[24] = test system: OVCAR-4 ovarian
[25] = test system: SK-OV-3 ovarian
[26] = test system: U251 glioblastoma
[27] = test system: M14 melanoma
[28] = test system: MALME-3M melanoma
[29] = test system: RXF 393 renal
[30] = test system: MCF7 breast
[31] = test system: PC-3 prostate
[32] = test system: SNB-19 CNS
[33] = test system: HCC-2998 colon
[34] = test system: 786-0 renal
[35] = test system: UACC-257 melanoma
[36] = test system: A549 NSCLC
[37] = test system: NCI/ADR-RES ovarian
[38] = test system: SK-MEL-28 melanoma
[39] = test system: RPMI-8226 leukemia
[40] = test system: IGROV1 ovarian
[41] = test system: K-562 leukemia
[42] = test system: HCT-15 colon
[43] = test system: LOX IMVI melanoma
[44] = test system: T-47D breast
[45] = test system: HOP-62 NSCLC
[46] = test system: BT-549 breast
[47] = test system: HL-60(TB) leukemia
[48] = test system: HCT-116 colon
[49] = test system: OVCAR-5 ovarian
[50] = test system: HOP-92 NSCLC
[51] = test system: NCI-H460 NSCLC
[52] = test system: UO-31 renal
[53] = test system: OVCAR-3 ovarian
[54] = test system: SF-539 CNS
[55] = test system: NCI-H23 lung
[56] = test system: A498 renal
[57] = test system: MOLT-4 leukemia

COc1cccc2c1C(=N)c1c(O)c3c(c(O)c1C2=O)C[C@@](O)(C(C)=O)C[C@@H]3O[C@H]1C[C@H](N)[C@H](O)[C@H](C)O1
GI50 [1]: 59.9 nM
TGI [1]: 262 nM
GI50 [2]: 120 nM
TGI [2]: 567 nM
GI50 [3]: 128 nM
TGI [3]: 403 nM
GI50 [4]: 97.3 nM
TGI [4]: 437 nM
GI50 [5]: < 10 nM
TGI [5]: < 10 nM
GI50 [6]: 44.8 nM
TGI [6]: 231 nM
GI50 [7]: 637 nM
TGI [7]: 2080 nM
GI50 [8]: 108 nM
TGI [8]: 399 nM
GI50 [9]: 181 nM
TGI [9]: 379 nM
GI50 [10]: 42.8 nM
TGI [10]: 281 nM
GI50 [11]: 66 nM
TGI [11]: 206 nM
GI50 [12]: 124 nM
TGI [12]: 318 nM
GI50 [13]: 166 nM
TGI [13]: 1090 nM
GI50 [14]: 10.3 nM
TGI [14]: 22.8 nM
GI50 [15]: 41.8 nM
TGI [15]: 153 nM
GI50 [16]: 48.7 nM
TGI [16]: 185 nM
GI50 [17]: 55.3 nM
TGI [17]: 206 nM
GI50 [18]: 42.9 nM
TGI [18]: 745 nM
GI50 [19]: 71.6 nM
TGI [19]: 466 nM
GI50 [20]: 184 nM
TGI [20]: 345 nM
GI50 [21]: 103 nM
TGI [21]: 345 nM
GI50 [22]: 119 nM
TGI [22]: 250 nM
GI50 [23]: 90.9 nM
TGI [23]: 668 nM
GI50 [24]: 387 nM
TGI [24]: 1370 nM
GI50 [25]: 88.4 nM
TGI [25]: 270 nM
GI50 [26]: 50.9 nM
TGI [26]: 187 nM
GI50 [27]: 73.6 nM
TGI [27]: 445 nM
GI50 [28]: 220 nM
TGI [28]: 953 nM
GI50 [29]: 41.7 nM
TGI [29]: 147 nM
GI50 [30]: 61.2 nM
TGI [30]: 1360 nM
GI50 [31]: 224 nM
TGI [31]: 1330 nM
GI50 [32]: 63.3 nM
TGI [32]: 376 nM
GI50 [33]: 114 nM
TGI [33]: 272 nM
GI50 [34]: 86.9 nM
TGI [34]: 244 nM
GI50 [35]: 455 nM
TGI [35]: 1820 nM
GI50 [36]: 76.1 nM
TGI [36]: 334 nM
GI50 [37]: 7.53 µM
TGI [37]: 25.4 µM
GI50 [38]: 131 nM
TGI [38]: 468 nM
GI50 [39]: < 10 nM
TGI [39]: 22.3 nM
GI50 [40]: 343 nM
TGI [40]: 2010 nM
GI50 [41]: 90.4 nM
TGI [41]: 452 nM
GI50 [42]: 417 nM
TGI [42]: 1560 nM
GI50 [43]: 144 nM
TGI [43]: 338 nM
GI50 [44]: 61.1 nM
TGI [44]: 451 nM
GI50 [45]: 51.3 nM
TGI [45]: 173 nM
GI50 [46]: 116 nM
TGI [46]: 335 nM
GI50 [47]: < 10 nM
TGI [47]: < 10 nM
GI50 [48]: 46.7 nM
TGI [48]: 1010 nM
GI50 [49]: 179 nM
TGI [49]: 583 nM
GI50 [50]: 62.9 nM
TGI [50]: 278 nM
GI50 [51]: 28.2 nM
TGI [51]: 126 nM
GI50 [52]: 707 nM
TGI [52]: 2090 nM
GI50 [53]: 102 nM
TGI [53]: 353 nM
GI50 [54]: 36.6 nM
TGI [54]: 119 nM
GI50 [55]: 47.9 nM
TGI [55]: 200 nM
GI50 [56]: 91.9 nM
TGI [56]: 1070 nM
GI50 [57]: < 10 nM
TGI [57]: < 10 nM
